Assays:
[1] = target: T1, partially purified bovine lens aldose reductase (Bos taurus, UniProt P16116); test: Inhibitory activity on aldose reductase enzyme reaction; format: biochemical; conditions: for inhibition at 0.1 µg/mL: concentration 0.1 μg/ml; for inhibition at 1 µg/mL: concentration 1.0 μg/ml
T1 construct: partially purified bovine lens aldose reductase; from tissue; host or cells: bovine lens
Method: The preparation of aldose reductase and the determination of its inhibitory action on enzyme reaction activity were carried out pursuant to the procedures disclosed by Haymann et al. in Journal of Biological Chemistry, 240, 877 (1965).
The sample solution to be examined for inhibitory activity was prepared by dissolving a compound of formula (I) according to the present invention in a small amount of methanol and increasing the volume of the resulting methanol solution by diluting it with distilled water up to tenfold volume. A partially purified bovine lens aldose reductase was used for the assay.
To 2.4 ml of a solution of 5×10^-5 M NADPH dissolved in a 2/15M phosphate buffer solution (pH 6.0), 0.4 ml of the enzyme solution (15 m units/ml) and 0.1 ml of the sample solution to be examined were added and the mixture was introduced into a quartz cell in a photoelectric photometer and subjected to pre-incubation at 37° C. for 4 mins. Then, 0.1 ml of a 0.015M D,L-glyceraldehyde solution was added thereto for initiating the enzyme reaction and the decrease in the optical absorption at 340 nm was measured at 37° C. for 4 mins. The inhibitory activity on aldose reductase was calculated by the following equation: [formula] in which A represents the enzyme reaction rate with addition of the inhibitor and B denotes the enzyme reaction rate without addition of the inhibitor.

Lens = test: Suppression of sorbitol accumulation in cultured lens; format: cell-based, Wistar rats; conditions: rat lens cultured 20 hours with 0.9% glucose; for inhibition at 5 µg/mL: concentration 5 μg/ml
Method: (§1) Lenses and sciatic nerves extirpated from Wistar rats, male, aged 7 weeks, were washed twice with an aseptic buffer solution consisting of 0.3% trisaminomethane, 0.8% NaCl, 0.038% KCl, 0.025% Na2 HPO4 ·12H2 O, 0.1% glucose and 1.85 ml/l of concentrated HCl.
(§2) The lenses and the sciatic nerves were then preincubated for 30 mins. in a culture medium prepared by adding 2 ml of 7.5% NaHCO3 aseptic solution and 5.5 ml of aseptic calf fetus serum to 100 ml of an aseptic culture medium of 0.98% TC Medium 199 (NISSUI Corp.) containing 0.01% of dihydrostreptomycin and 0.01% of benzylpenicillin. Thereafter, the intrinsic culture was effected in a culture medium prepared by adding each sample solution to be examined and 0.9% of glucose to the abovementioned culture medium and permitting culturing to proceed for 20 hours. The incubation was effected at 37° C. in an atmosphere composed of 95% air and 5% CO2.
(§3) After culturing, the cultured samples of lens and sciatic nerve were removed from the culture medium to filter paper and the weight of each of them was measured after the adherent culture solution had been blown off. Then, each of the cultured samples was homogenized with the addition of 1 ml of a cold 8% HClO4 solution and the homogenized mixture was subjected to centrifugation at 10,000 G for 10 mins., whereby a supernatant was obtained. The resulting precipitate was then homogenized again with addition thereto of 0.5 ml of cold 8% HClO4 solution and the homogenized mixture was again subjected to centrifugation in a similar way as above to obtain a further supernatant. This was combined with the previously obtained supernatant and the resulting solution was neutralized with 2N KOH aq. solution and was supplemented with distilled water to a volume of 5 ml. The precipitate formed by neutralization was separated by centrifugation at 3,000 rpm for 10 mins. and the resulting supernatant was employed as the sample for determining the sorbitol content.
(§4) The determination of the sorbitol content in the lens and in the sciatic nerve was carried out in accordance with the method of Bergmeyer in "Methods of Enzymatic Analysis" edited by H. U. Bergmeyer, pp 1323-1326, Academic Press, New York, 1974 and in accordance with the method of Malaon et al. in "Diabetes" 29, 861-864 (1980).
(§5) To 0.5 ml cf the sample solution for determination of sorbitol content obtained as above, 0.9 ml of 0.1M glycine-KOH buffer solution (pH 9.4) containing 1 mM of NAD^+ and 0.1 ml of a solution of sorbitol dehydrogenase of 20 units/ml were added and the resulting mixture was subjected to incubation at 37° C. for 1 hour.
(§6) The content of sorbitol in each tissue was estimated by assuming the increment of the optical absorption at 340 nm to be proportional to the amount of NADH produced by the reaction for the lens and by detecting the fluorescence with an excitation wavelength of 366 nm and a fluorescence wavelength of 425 nm for the sciatic nerve.
(§7) The activity for suppressing accumulation of sorbitol, i.e. the aldose reductase inhibiting activity, was calculated from the determined sorbitol content by the calculation formula [formula] in which A denotes the content of sorbitol per unit weight of the tissue after cultivation with addition of the inhibitor, B denotes the sorbitol content per unit weight of the tissue after cultivation without addition of the inhibitor and C represents the sorbitol content per unit weight of the tissue after cultivation in the medium without addition of glucose and inhibitor.

Sciatic Nerve = test: Suppression of sorbitol accumulation in cultured sciatic nerve; format: cell-based, Wistar rats; conditions: Rattus norvegicus, 20 h, concentration 1.0 μg/ml; rat sciatic nerve cultured 20 hours with 0.9% glucose
Method: as §1, §2, §3, §4, §5, §6, §7

inhibition at 0.1 µg/mL [1] | inhibition at 1 µg/mL [1] | inhibition at 0.02 µg/mL ([1]; concentration 0.02 μg/ml) | Compound | inhibition at 5 µg/mL (Lens) | inhibition at 1 µg/mL (Sciatic Nerve) | inhibition at 2.5 µg/mL (Lens; concentration 2.5 μg/ml)
67.4% | 93.7% | – | CCCCCCCCOc1ccc(CCC(=O)O)cc1-c1cc(CCC(=O)O)ccc1O [Example 10, 2-octyloxy-2'-hydroxy-5,5'-bis (2-carboxyethyl) biphenyl] | 37.7% | 33.6% | –
65.3% | 91.9% | – | CCCCCCCOc1ccc(CCC(=O)O)cc1-c1cc(CCC(=O)O)ccc1O [Example 9, 2-heptyloxy-2'-hydroxy-5,5'-bis (2-carboxyethyl) biphenyl] | 65% | 37.8% | –
55% | – | 19.5% | CCOc1ccc(CCC(=O)O)cc1-c1cc(CCC(=O)O)ccc1O [Example 17, 2-ethoxy-2'-hydroxy-5,5'-bis (2-carboxyethyl) biphenyl] | – | 69.2% | 47.2%
60.8% | 92.8% | – | O=C(O)CCc1ccc(O)c(-c2cc(CCC(=O)O)ccc2OCc2ccccc2)c1 [Example 1, 2-benzyloxy-2'-hydroxy-5,5'-bis (2carboxyethyl) biphenyl] | 69.9% | 64.6% | –

Reference: patent US5136090A, “Biphenyl-5,5'-bis-alkanoic acid derivatives, their production and aldose reductase inhibitors containing the same” (Toyo Jozo Kabushiki Kaisha, priority 1990, dated 1992)
